Columns and labels:
[1] = tested on: Adjuvans-Arthritis; assay: Adjuvant arthritis test; assay type: in vivo, Ratte; details: rat, 25 mg/kg/p.o.
Method: Der übliche Adjuvans-Arthritis-Test für die anti-arthritische Aktivität wird im wesentlichen wie in Proc. Soc. Exp. Biol. Med. 137, 506 (1971) durchgeführt.
Weiter sind die Verbindungen der Erfindung, z.B. die vorher genannten Verbindungen der Beispiele 1, 2 und 3 in dem üblichen Adjuvans- Arthritis-Test an der Ratte bei einer Dosis von 25 mg/kg/p.o. aktiv und sie gewähren einen Schutz von 47%, 58% bzw. 55Z.
Beispiel 13: Der Schutz im üblichen Adjuvans-Arthritis-Test, der im wesentlichen gemäss Proc. Soc. Exp. Biol. Med. 137, 506 (1971) durchgeführt wird, ist wie folgt: […]

[2] = tested on: BCG immunisierten Adjuvans-Arthritis-Ratte; assay: Skin test (delayed hypersensitivity, PPD) in BCG-immunised adjuvant arthritis rat; assay type: in vivo; details: 25 mg/kg/p.o.
From the text: Die Erhöhung der durch die Zellen vermittelten Immunität wird in-vivo an der mit BCG-immunisierten arthritischen Ratten durch Messung der Verzögerung der Ueberempfindlichkeitsreaktion, im wesentlichen wie in Current Therapeutic Research 30, S 34 (1981) beschrieben, gemessen.
Männliche Charles River Ratten von einem Gewicht von 325-400 g werden sensibilisiert, indem man jedem Versuchstier in die rechte hintere Pfotensohle […] Mycobacterium tuberculosis (Difco), das in Freund' schem Adjuvans (Freund's incomplete adjuvant) suspendiert ist, injiziert. Die Tiere werden am 18. Tag nach der Adjuvans-Injektion mit 0,1 ml BCG-Vakzine intradermal immunisiert. Die Wirksubstanz wird peroral in einer Maisstärke-Suspension verabreicht. Die Kontrolltiere werden lediglich mit der Maisstärke behandelt. Alle Tiere werden am 29. Tag an der Haut durch intradermale Verabreichung von 10 pg PPD (purified protein derivative) getestet, um Hautreaktionen hervorzurufen. Der Durchmesser des Erythems und die Erhärtungsreaktion werden 24 Stunden nach der Antigen-Behandlung gemessen. Eine […] des Erythem-Durchmessers deutet auf die erhöhte Zellenimmunität hin.

[3] = tested on: durch Carrageenin hervorgerufenen Oedem; assay: Carrageenan paw oedema test; assay type: in vivo, Ratte; details: rat
Method: Der Carrageenin-Photenödem-Test in Hinsicht auf die antiinflammatorische Wirkung wird an der Ratte wie folgt durchgeführt: • Eine Stunde nach der oralen Verabreichung der Wirksubstanz wird in die Sohle einer hinteren Pfote 0,1 ml Carrageenin (1%-ig) injiziert. In bestimmten Zeiten wird dann die Differenz der Schwellung zwischen der behandelten und der intakten gegenseitigen Pfote durch Quecksilber-Verdrängung gemessen.
Als Beispiele der Erfindung seien das ß-0xo-a-(phenylcarbamoyl)-ß-(2-pyrrolyl)-propionitril des Beispeils 1 und das ß-0xo-a-(4-chlorphenyl)-ß-(2-pyrrolyl)-propionitril des Beispiels 2 genannt, welche bei einer peroralen Dosis von 100 mg/kg, gegen die durch Carrageenin hervorgerufenen Oedem an der Ratte, 3 Stunden nach der Verabreichung, einen 46 bzw. 63%-igen Schutz gewähren. Analog ergibt das β-Oxo-α-(2,4- difluorphenylcarbamoyl)-ß-(2-pyrrolyl)-propionitril des Beispiels 3, bei einer Dosis von 25 mg/kg/p.o. einen 33%-igen Schutz.

[4] = 100 mg/kg peroral, 3 hours after administration

Compound	Schutz im Adjuvans-Arthritis-Test [1] [%]	Wirkung im Haut-Test (immunopotenzierende Wirkung) [2]	Schutz gegen die durch Carrageenin hervorgerufenen Oedem [3, 4] [%]	Schutz gegen die durch Carrageenin hervorgerufenen Oedem ([3]; 25 mg/kg/p.o.) [%]
N#CC(C(=O)Nc1ccccc1)C(=O)c1ccc[nH]1 (stereo not shown) [Beispiel 1, ß-Oxo-a-(phenylcarbamoyl)-ß-(2-pyrollyl)-propionitril]	47	signifikante Wirkung	46	
N#CC(C(=O)Nc1ccc(Cl)cc1)C(=O)c1ccc[nH]1 (stereo not drawn) [Beispiel 2, β-Oxo-α-(4-chlorphenylcarbamoyl)-ß-(2-pyrrolyl)-propionitril]	58	signifikante Wirkung	63	
N#CC(C(=O)Nc1ccc(F)cc1F)C(=O)c1ccc[nH]1 (stereo not shown) [Beispiel 3, ß-0xo-a-(2,4-difluorphenylcarbamoyl)-ß-(2-pyrrolyl)-propionitril]				33
